From patent US11965159B2, “Compositions and methods for regulating proteins and nucleic acids activities” (THE BROAD INSTITUTE, INC., priority 2019, dated 2024)
Entries after “also recorded” stand apart in the source; their conditions may differ.

Experiments:
[1] = test system: S. aureus RN4220; assay: Toxicity study of compounds in bacterial culture (absence of phage); format: cell-based; settings: 20 μM, 16 h, no phage
Experimental: FIG. 79. Toxicity study of compounds in bacterial culture. Bacterial growth study in the presence of the compound. Bacterial cell S. aureus RN4220 strain was allowed to grow either in the presence of DMSO or 20 μM of compound BRD7087 or BRD5779 over 16 h. The experiment was performed in three technical replicates.
Bacterial study. Plasmid pRH248 harboring SpCas9, tracrRNA and a single-spacer array ([…]) (SEQ ID NO:7) targeting phage DNM474 was constructed via BsaI cloning onto pDB114 as described in Heler et al 6. Plate reader growth curves of bacteria infected with phage were conducted as described previously with minor modifications 7. Overnight cultures were diluted 1:100 into 2 ml of fresh BHI supplemented with appropriate antibiotics and 5 mM CaCl2) and grown to an OD600 of ˜0.2. Immune cells carrying pRH248 were diluted with cells lacking CRISPR-Cas in a 1:10,000 ratio. […] To produce plate reader growth curves, 200 μL of infected cultures, normalized for OD600, were transferred to a 96-well plate in triplicate. […]
Bacterial study. […] Plate reader growth curves of bacteria infected with phage were conducted as described previously with minor modifications^7. […] To produce plate reader growth curves, 200 μL of infected cultures, normalized for OD600, were transferred to a 96-well plate in triplicate. […]

[2] = molecular target: SpCas9 (Streptococcus pyogenes serotype M1, UniProt Q99ZW2); assay: mCherry-GFP NHEJ assay; format: cell-based; set-up: host or cells: U2OS.eGFP-PEST; settings: 2-10 μM, 24 h
SpCas9, sequence (Q99ZW2 whole entry): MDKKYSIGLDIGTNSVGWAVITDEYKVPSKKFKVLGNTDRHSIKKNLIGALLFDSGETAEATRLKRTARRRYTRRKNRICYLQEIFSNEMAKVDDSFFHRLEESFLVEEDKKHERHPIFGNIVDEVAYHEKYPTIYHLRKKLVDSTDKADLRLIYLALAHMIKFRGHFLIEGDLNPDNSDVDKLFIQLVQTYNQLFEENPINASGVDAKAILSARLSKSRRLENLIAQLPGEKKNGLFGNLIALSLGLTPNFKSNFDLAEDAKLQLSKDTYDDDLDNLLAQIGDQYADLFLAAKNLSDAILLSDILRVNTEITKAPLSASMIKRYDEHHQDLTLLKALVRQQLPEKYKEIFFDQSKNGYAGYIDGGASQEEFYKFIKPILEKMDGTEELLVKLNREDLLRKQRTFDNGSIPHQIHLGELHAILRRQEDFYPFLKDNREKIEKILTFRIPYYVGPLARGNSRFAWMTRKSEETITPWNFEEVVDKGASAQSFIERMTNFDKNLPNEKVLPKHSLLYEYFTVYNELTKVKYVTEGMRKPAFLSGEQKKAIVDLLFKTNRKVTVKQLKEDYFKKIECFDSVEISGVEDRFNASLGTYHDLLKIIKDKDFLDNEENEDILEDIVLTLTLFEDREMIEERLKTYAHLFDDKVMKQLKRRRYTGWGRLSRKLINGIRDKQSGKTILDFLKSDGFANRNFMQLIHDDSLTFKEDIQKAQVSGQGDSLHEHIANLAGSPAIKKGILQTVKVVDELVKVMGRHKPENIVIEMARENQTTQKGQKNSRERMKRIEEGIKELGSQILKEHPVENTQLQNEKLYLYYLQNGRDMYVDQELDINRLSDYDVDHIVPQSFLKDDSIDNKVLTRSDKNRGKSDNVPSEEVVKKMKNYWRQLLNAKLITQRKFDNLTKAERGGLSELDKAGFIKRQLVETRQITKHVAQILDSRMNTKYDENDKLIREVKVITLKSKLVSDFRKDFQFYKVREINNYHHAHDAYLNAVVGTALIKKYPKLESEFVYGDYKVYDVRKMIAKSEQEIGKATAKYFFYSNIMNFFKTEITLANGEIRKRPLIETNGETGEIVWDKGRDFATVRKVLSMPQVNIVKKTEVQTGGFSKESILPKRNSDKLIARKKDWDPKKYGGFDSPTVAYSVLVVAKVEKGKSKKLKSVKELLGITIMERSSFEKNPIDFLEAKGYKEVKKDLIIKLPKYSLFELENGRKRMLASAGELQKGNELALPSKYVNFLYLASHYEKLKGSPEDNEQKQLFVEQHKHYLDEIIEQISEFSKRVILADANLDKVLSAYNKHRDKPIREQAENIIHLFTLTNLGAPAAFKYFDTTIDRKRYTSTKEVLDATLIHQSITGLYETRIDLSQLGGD
Experimental: NHEJ assay. Approximately 8,000 cells/well were plated in a 96-well format 24 h before transiently transfected with a total 100 ng of DN66 (mCherry-TAG-GFP reporter) and DN78 (SpCas9 and gRNA) plasmids (1:1) using Lipofectamine™ 2000 (Life Technologies™) 3. Transfected cells were allowed to grow in the indicated amount of compound or DMSO for 24 h. Cells were then fixed using 4% paraformaldehyde and imaged with the HCS NuclearMask™ Blue Stain (Life Technologies™) as the nuclear counter-staining agent. Imaging was performed with an IXM 137204 ImageXpress® Automated High Content Microscope (Molecular Devices™) at 20× magnification under three excitation channels (blue, green and red) with 9 acquiring sites per well. Images were analyzed in the MetaXpress® software to determine the % NHEJ and the data were plotted using GraphPad Prism 6. The Z′-value was calculated following the formula:
NHEJ assay. Approximately 8,000 cells/well were plated in a 96-well format 24 h before transiently transfected with a total 100 ng of DN66 (mCherry-TAG-GFP reporter) and DN78 (SpCas9 and gRNA) plasmids (1:1) using Lipofectamine™ 2000 (Life Technologies™)^3. […] Images were analyzed in the MetaXpress® software to determine the % NHEJ and the data were plotted using GraphPad Prism 6. The Z′-value was calculated following the formula: […]

Compound	toxicity to bacteria in the presence of inhibitor alone [1]	inhibition of SpCas9-mediated NHEJ [2]
COc1ccc(-c2ccc3c(c2)[C@H]2[C@H](CCN2Cc2ccncc2)[C@@H](CO)N3)cc1 [BRD5779, ((3aR,4S,9bR)-8-(4-Methoxyphenyl)-1-(pyridin-4-ylmethyl)-2,3,3a,4,5,9b-hexahydro-1H-pyrrolo[3,2-c]quinolin-4-yl)methanol]	non-toxic in the absence of phage	active; also recorded: Dose-dependent inhibition of SpCas9-mediated NHEJ
OC[C@H]1Nc2ccc(-c3cccc(F)c3)cc2[C@H]2[C@@H]1CCN2Cc1ccncc1 [BRD7087, ((3aR,4S,9bR)-8-(3-Fluorophenyl)-1-(pyridin-4-ylmethyl)-2,3,3a,4,5,9b-hexahydro-1H-pyrrolo[3,2-c]quinolin-4-yl)methanol]	non-toxic in the absence of phage	active; also recorded: Dose-dependent inhibition of SpCas9-mediated NHEJ
